# Laboratory results published in patent US6500858B2, “Taxoid anti-tumor agents and pharmaceutical compositions thereof” (The Research Foundation of the state University of New York, priority 1994, dated 2002).
# Test: cytotoxicity of C-3′ modified docetaxel analog (cell line not clearly stated)
# Type: cell-based
# Conditions: compared with isobutenyl group of RAH-1
smiles,measurement,value
CC(=O)OC12COC1CC(O)C1(C)C(=O)C(O)C3=C(C)C(OC(=O)C(O)C(C=Cc4ccccc4)NC(=O)OC(C)(C)C)CC(O)(C(OC(=O)c4ccccc4)C21)C3(C)C (stereo not shown) [3′-dephenyl-3′-(2-phenylethenyl)docetaxel],decrease in cytotoxicity,> 20 times
